The target of this assay is T1, human adenosine A2a receptor (Homo sapiens, UniProt P29274).
T1 construct: β1 and γ2 baculoviruses from PerkinElmer Biosignal; host or cells: Sf9 insect cells infected with recombinant baculoviruses; membranes
Description: Agonist-induced [35S]-GTPγS binding assay on A2a receptor, Sf9 membranes. The format is biochemical. As to conditions: Sf9 cells expressing adenosine A2a receptor, XLGolf, and β1γ2 dimer.

Results on 1 compound are retold here after patent US20070254313A1, “Gnal Splice Variant and Uses Thereof” (AstraZeneca AB, priority 2003, published 2007).

T1 sequence (P29274 whole entry): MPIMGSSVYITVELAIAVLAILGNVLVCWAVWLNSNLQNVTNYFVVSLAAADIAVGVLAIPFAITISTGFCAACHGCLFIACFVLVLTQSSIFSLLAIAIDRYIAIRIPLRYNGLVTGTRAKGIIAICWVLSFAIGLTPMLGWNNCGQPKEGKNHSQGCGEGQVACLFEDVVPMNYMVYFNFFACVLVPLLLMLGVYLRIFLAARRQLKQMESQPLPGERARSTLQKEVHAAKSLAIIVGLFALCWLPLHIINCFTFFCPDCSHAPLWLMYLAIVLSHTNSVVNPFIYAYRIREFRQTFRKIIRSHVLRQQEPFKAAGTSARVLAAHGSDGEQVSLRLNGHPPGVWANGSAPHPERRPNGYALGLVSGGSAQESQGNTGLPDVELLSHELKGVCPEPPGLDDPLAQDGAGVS
Description: After infection for 48 hours, cells were harvested for membrane preparation. Cells were harvested by centrifugation at 500×g at 4° C. The cell pellets were washed twice with Dulbecco's phosphate-buffered saline (DPBS) at pH 7.4 and suspended in ice-cold 10 mM Tris-HCl with 5 mM EDTA (TE)(pH 7.4) containing a protease inhibitor cocktail (Roche Applied Science, Indianapolis, Ind.) and sonicated. Following centrifugation at 1000×g, membranes were collected from the supernatant by centrifugation at 20,000×g for 30 min at 4° C. The membrane fraction was stored at −80° C. in TE containing 5% glycerol.
Membranes from Sf9 cells expressing the ADORA2A, XLGolf, β1, and γ2 subunits were resuspended in the reaction buffer (20 mM HEPES, pH 7.4, 100 mM NaCl, 10 mM MgCl2, 1 mM EDTA, 1 mM DTT) including protease inhibitor. Agonist-induced [^35S]-GTPγS binding assay was performed for 90 min at room temperature in 96 well-microplates with a volume of 200 μl per well, and containing 5 μg of membranes, agonist at a concentration range of 10^−12 to 10^−4 M, 10 μM GDP, and 400 pM [^35S]-GTPγS. Non-specific binding was determined in the presence of 10 μM unlabeled GTPαS. Incubations were terminated by rapid filtration of the samples throught glass fiber filters (Whatman GF/C). […] Radioactivity was measured using a Packard Bioscience Top Count NXT Microplate Scintillation microplate reader. […]

For `Nc1nc(Nc2ccccc2)nc2c1ncn2[C@@H]1O[C@H](CO)[C@@H](O)[C@H]1O` [CV1808], the “potencies of ADA-resistant adenosine receptor ligands” value is on record as “comparable”.
